Measurements taken from patent US20220211710A1, “COMPOSITIONS AND METHODS FOR TREATING CANCER WITH NUCLEOSIDE-METABOLISM MODULATORS” (The Regents of the University of California, priority 2019, published 2022).

What was measured:
Type in all cases: cell-based, human
SUIT2 SAMHD1 KO cells [1] = test: Cell Titer Glo proliferation, SUIT2 SAMHD1 knockout; details: 72 h
Procedure: (§1) For CellTiter-Glo analysis cells were plated at 1×10^3 cells/well in 50 μl/well in white opaque 384-well plates and treated as described. Following incubation 50 μl of CellTiter-Glo reagent (Diluted 1:5 in dH2O) was added to each well, plates incubated at room temperature for 5 m and luminescence was measured using a BioTek microplate luminescence reader. Proliferation rate normalized growth inhibition was calculated using the previously described GR metric (Hafner et al., 2016).

HCC827 cells [2] = test: Cell Titer Glo proliferation, HCC827; details: for IC50: Homo sapiens, HCC827, 72 h, +10 μM dG
Procedure: as §1

JURKAT cells = test: Cell Titer Glo proliferation, JURKAT
Procedure: as §1

CCRF-CEM cells [3] = test: Cell Titer Glo proliferation, CCRF-CEM (YFP control)
Procedure: as §1

MOLT-4 cells = test: Cell Titer Glo proliferation, MOLT-4; details: MOLT-4, 5 μM dG + 1 μM BCX-1777, 72 h
Procedure: as §1

B-ALL cell lines = test: Cell Titer Glo proliferation, B-ALL models; details: 5 μM dG + 1 μM BCX-1777, 72 h
Procedure: as §1

[4] = test system: CCRF-CEM SAMHD1 over-expressing cells; test: Cell Titer Glo proliferation, CCRF-CEM SAMHD1 over-expressing
Procedure: as §1

[5] = test system: CCRF-CEM CDA over expressing cells; test: Cell Titer Glo proliferation, CCRF-CEM CDA over-expressing; details: CCRF-CEM overexpressing CDA, 10 μM dG + 1 μM BCX-1777 + dC, 72 h
Procedure: as §1

T-ALL cell lines = test: Propidium iodide cell cycle analysis, T-ALL models; details: T-ALL models only, 5 μM dG + 1 μM BCX-1777, 24 h
Procedure: (§2) Treated cells were washed with PBS and suspended in propidium iodide cell cycle staining solution (100 μg/ml propidium iodide; 20 μg/ml Ribonuclease A). 10,000 events were collected per sample. All flow cytometry data were acquired on five-laser BD LSRII, and analyzed using FlowJo software (Tree Star).

CCRF-CEM cells [6] = test: Immunoblot analysis, CCRF-CEM; details: 5 μM dG + 1 μM BCX-1777, 24 h
Procedure: (§3) PBS-washed cell pellets were re-suspended in cold RIPA buffer supplemented with protease and phosphatase inhibitors. Protein lysates were normalized using BCA assay, diluted using RIPA and 4× laemmli loading dye, resolved on 4-12% Bis-Tris gels and electro-transferred to nitrocellulose membranes. After blocking with 5% nonfat milk in TBS+0.1% Tween-20 (TBS-T), membranes were incubated overnight in primary antibodies diluted (per manufacturers instructions) in 5% BSA in TBS-T. Membranes were washed with TBST-T and incubated with HRP-linked secondary antibodies prepared at a 1:2500 dilution in 5% nonfat dry milk in TBS-T. HRP was activated by incubating membranes with a mixture of SuperSignal Pico and SuperSignal Femto ECL reagents (100:1 ratio). Exposure of autoradiography film was used for detection.

NALM6 cells [7] = test: Immunoblot analysis, NALM6; details: NALM6, 5 μM dG + 1 μM BCX-1777, 24 h
Procedure: as §3

[8] = test system: CCRF-CEM SAMHD1 over-expressing cells; test: Propidium iodide cell cycle analysis, CCRF-CEM SAMHD1 over-expressing; details: CCRF-CEM expressing SAMHD1, 5 μM dG + 1 μM BCX-1777, 24 h
Procedure: as §2

HCC827 cells [9] = test: Propidium iodide cell cycle analysis, HCC827; details: HCC827, 5 μM dG + 1 μM BCX-1777, 24 h
Procedure: as §2

HCC827 cells [10] = test: Crystal violet proliferation analysis, HCC827; details: HCC827, 5 μM dG + 1 μM PNPi, 7 d
Procedure: (§4) For crystal violet staining, cells were plated in 6-well cell culture plates at 1×10^4 cells/well and treated as described. Following treatment cells were fixed by incubating in 4% PFA in PBS for 15 m at room temperature. Plates were subsequently washed with PBS and stained with 0.1% crystal violet in H2O for 15 m at room temperature.

SUIT2 cells [11] = test: Immunoblot analysis, SUIT2 wild-type; details: SUIT2 parental, 5 μM dG + 1 μM forodesine, 24 h
Procedure: as §3

SUIT2 SAMHD1 KO cells [12] = test: Immunoblot analysis, SUIT2 SAMHD1 knockout
Procedure: as §3

SUIT2 SAMHD1 KO cells [13] = test: Crystal violet proliferation analysis, SUIT2 SAMHD1 knockout; details: 7 d
Procedure: as §4

[14] = test system: SAMHD1-deficient primary melanoma cell lines; test: Crystal violet proliferation analysis, SAMHD1-deficient primary melanoma models; details: 1 μM PNPi + 10 μM dG, 7 d
Procedure: as §4

[15] = test system: SAMHD1-deficient primary melanoma cell lines; test: Propidium iodide cell cycle analysis, SAMHD1-deficient primary melanoma models; details: only SAMHD1-deficient melanoma models, 1 μM PNPi + 10 μM dG, 24 h
Procedure: as §2

NALM6 cells [16] = test: Cell Titer Glo proliferation, NALM6; details: NALM6 (SAMHD1-proficient), 72 h, +1 μM dG
Procedure: as §1

SUIT2 cells [17] = test: Cell Titer Glo proliferation, SUIT2 wild-type; details: SUIT2 (SAMHD1-proficient), 72 h, +5 μM dG
Procedure: as §1

`NC(=S)N/N=C/c1ncccc1N` [3-AP] was tested, and the “selectivity for SAMHD1 KO over WT cells” value (SUIT2 SAMHD1 KO cells [1]; SUIT2 SAMHD1 KO vs WT) was “did not extend”.

`O=c1[nH]cnc2c([C@@H]3N[C@H](CO)[C@@H](O)[C@H]3O)c[nH]c12` [Forodesine] was tested, and the IC50 (HCC827 cells [2]) was 71 nM, the “anti-proliferative effect of the combination with dG” value (“anti-proliferative effect … with dG” for short) (JURKAT cells; JURKAT, 5 μM dG + 1 μM BCX-1777, 72 h) was “eradicated” and the “proliferation with dC supplementation” value (CCRF-CEM cells [3]; CCRF-CEM YFP, 10 μM dG + 1 μM BCX-1777 + 1 μM dC, 72 h) was 60 % of control. The proliferation (CCRF-CEM cells [3]; CCRF-CEM YFP, 10 μM dG + 1 μM BCX-1777, 72 h) was 1 % of control, the “anti-proliferative effect … with dG” value (CCRF-CEM cells [3]; CCRF-CEM, 5 μM dG + 1 μM BCX-1777, 72 h) was “eradicated” and the “anti-proliferative effect … with dG” value (MOLT-4 cells) was “eradicated”. For the same compound, the “anti-proliferative effect … with dG” value (B-ALL cell lines) was “unaffected”, the “anti-proliferative effect of PNPi” value ([4]; CCRF-CEM expressing SAMHD1, 5 μM dG + 1 μM BCX-1777, 72 h) was “completely resistant” and the “dC rescue of the anti-proliferative effect of PNPi” value [5] was “prevented this rescue”. The “percentage of sub-G1 cells (marker for cell death)” value (T-ALL cell lines) was “increase in the percentage of sub-G1 cells”, the “DNA damage (H2AXS139 phosphorylation)” value (CCRF-CEM cells [6]) was “induced DNA damage” and the “apoptosis (cleaved caspase 3 accumulation)” value (CCRF-CEM cells [6]) was “apoptosis”. For the same compound, the “DNA damage and apoptosis” value (NALM6 cells [7]) was “not in NALM6 cells”, the “cytotoxic effect of PNPi” value [8] was “completely resistant” and the cell cycle (HCC827 cells [9]) was “induced cell cycle arrest”. The “proliferation, crystal violet” value (HCC827 cells [10]) was “proliferation inhibition”, the “response to PNPi (DNA damage)” value (SUIT2 cells [11]) was “completely resistant” and the “DNA damage in response to PNPi” value (SUIT2 SAMHD1 KO cells [12]; SUIT2 SAMHD1 knockout, 5 μM dG + 1 μM forodesine, 24 h) was “exhibited DNA damage”. The “proliferation, crystal violet” value (SUIT2 SAMHD1 KO cells [13]; only SUIT2 SAMHD1 knockout cells, 5 μM dG + 1 μM PNPi) was “could be prevented”, the “proliferation, crystal violet” value [14] was “selectively inhibited proliferation” and the cell cycle [15] was “induced cell cycle arrest”.

In the case of `Cc1cn([C@H]2C[C@H](O)[C@@H](CO)O2)c(=O)[nH]c1=O` [thymidine], the “induction of pCHEK1S345 and pH2A.XS139” value (SUIT2 SAMHD1 KO cells [12]; SUIT2 SAMHD1 KO vs WT, 100 μM dT, 24 h) is reported as “enhanced”.

`O=c1[nH]cnc2c(CN3C[C@H](CO)[C@@H](O)C3)c[nH]c12` [ulodesine] was tested, and the “proliferation (ulodesine)” value (HCC827 cells [2]; HCC827 (SAMHD1 deficient), 72 h, +5 μM dG) was “selectively impaired the proliferation”, the IC50 (HCC827 cells [2]) was 21 nM and the “proliferation (ulodesine)” value (JURKAT cells; JURKAT (SAMHD1 deficient), 72 h, +1 μM dG) was “selectively impaired the proliferation”. The “proliferation (ulodesine)” value (CCRF-CEM cells [3]; CCRF-CEM (SAMHD1 deficient), 72 h, +1 μM dG) was “selectively impaired the proliferation”, the “proliferation (ulodesine)” value (NALM6 cells [16]) was “not exhibiting any activity” and the “proliferation (ulodesine)” value (SUIT2 cells [17]) was “not exhibiting any activity”. The “proliferation (ulodesine)” value (SUIT2 SAMHD1 KO cells [1]; SUIT2 CRISPR/Cas9 SAMHD1 knockout, +5 μM dG) was “sensitive” and the “proliferation (ulodesine)” value ([4]; CCRF-CEM overexpressing SAMHD1, 72 h, +1 μM dG) was “resistance”.

(R)-DI-82 [dCK inhibitor] was tested, and the “effect of dCK inhibitor on PNPi-induced DNA damage” value (SUIT2 SAMHD1 KO cells [12]; SUIT2 SAMHD1 knockout, 5 μM dG + 1 μM forodesine + 1 μM (R)-DI-82, 24 h) was “completely prevented” and the “effect of dCK inhibitor on PNPi anti-proliferative effect” value (SUIT2 SAMHD1 KO cells [13]; SUIT2 SAMHD1 knockout, 5 μM dG + 1 μM PNPi + 1 μM dCKi) was “completely blocked”.
